# Experimental data: article PMC8615111, “Phenolic Thiazoles with Antioxidant and Antiradical Activity. Synthesis, In Vitro Evaluation, Toxicity, Electrochemical Behavior, Quantum Studies and Antimicrobial Screening” (Antioxidants, 2021)
# Like-named read-outs stand apart in the source and are kept apart here.
# Tests used:
# [1] = DPPH˙ radical scavenging by cyclic voltammetry
# Description: (§1) The antioxidant properties were evaluated in terms of their activity against some free radicals, and other compounds reported in the literature, relevant for this purpose, such as: • ferric ions (Fe^3+)—used to test the reduction of the antioxidant character of the compounds; • DPPH˙ free radical– used to test the scavenging effect of the compounds on this radical; • hydrogen peroxide (H2O2)—used to test the scavenging effect of the synthesized molecules on this compound; • 2,2,6,6-tetramethylpiperidinyl-1-oxy (TEMPO)—used to test the scavenging effect of the synthesized molecules on this compound.
# The radical scavenging properties of the novel compounds and the other antioxidants were determined using a stock DPPH˙ radical solution prepared in absolute ethanol. The antioxidant samples were mixed with DPPH˙ solution and HClO4 electrolyte and incubated in the dark for 30 min. The remaining redox activity of DPPH was measured by cycling the potential between −0.7 V and 1.2 V, with a scan rate of 0.1 V/s.
# The nitrogen-centered 2-2-diphenyl-1-picrylhydrazyl radical (DPPH˙) based assay is one of the most commonly employed method to evaluate the ability of a compound to scavenge or neutralize free radicals based on the reduction of the radical.
# Taking into account the redox activity of DPPH˙, its diminution by an antioxidant can also be followed by CV, which is expected to show changes in the voltammetric peaks. Figure A5 reports the electrochemical study of initial electrooxidation of DPPH˙ and the novel compounds compared to remaining peaks after their incubation for 30 min. The decrease of all the peaks after mixture incubation indicates the partial consumption of DPPH˙.
# [2] = ABTS˙^+ radical scavenging assay; format: biochemical; settings: for IC50: ABTS˙^+ scavenging
# Fe^2+ chelation assay = format: biochemical
# [3] = Ferric ions (Fe^3+) reducing antioxidant power by cyclic voltammetry
# Description: The evaluated compounds’ stock solutions used were prepared at a concentration of 5 mM. To test their redox properties, dilutions of 0.5 mM and 2 mM were prepared in 0.1 M HClO4 electrolyte (pH = 1.2). Screen-printed electrodes (SPEs; Metrohm DropSens, Oviedo, Spain) (planar electrodes) with graphite and gold working electrodes were used. Cyclic voltammetry (CV) and differential pulse voltammetry (DPV) were the electrochemical methods applied. The experimental conditions for each test are mentioned near the corresponding data (Appendix A).
# as §1
# This method is based on the evaluation of the influence of the compound measured by the direct reduction of Fe[(CN)6]^3− to […]. This assay is based on the reduction of Fe^3+ to Fe^2+ due to the action of antioxidants. Based on the electrochemical behavior of the studied compounds, the interaction of Fe^3+ was followed by cyclic voltammetry (CV) via the possible changes of redox peaks characteristic for Fe^3+/Fe^2+ transition after the interaction with antioxidants (if any).
# From the voltammogram of potassium ferricyanide it can be observed that the one-electron transfer process Fe^3+/Fe^2+ occurs at 0.247 V/ 0.150 V in acidic media (red) (Figure A1; Table A1).
# Each compound presents its characteristic peaks (blue line in each figure).
# [4] = TEMPO scavenging by differential pulse voltammetry; settings: 2 mM TEMPO, one hour incubation, 0.1 M HClO4, DPV
# In short: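 Scavenging of the stable nitroxide radical TEMPO by the compounds, measured as antioxidant activity by differential pulse voltammetry.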
# E. coli ATCC 8739 = experiment: Antimicrobial activity, modified microdilution; format: cell-based; settings: Escherichia coli, ATCC8739
# [5] = compound + DPPH, 30 min, 2nd Eox
# [6] = compound alone 0.5 mM in 0.1 M HClO4, 1st Eox column
# [7] = compound alone 0.5 mM in 0.1 M HClO4, 1st Iox column
# [8] = compound alone, 2nd Ered column
# [9] = compound + Fe^3+/Fe^2+, 1st Ered
# [10] = compound + Fe^3+/Fe^2+, 1st Ired
# [11] = compound + Fe^3+/Fe^2+, 2nd Eox
# [12] = compound + Fe^3+/Fe^2+, 2nd Iox column
# [13] = compound alone 0.5 mM in 0.1 M HClO4, 2nd Iox column
# [14] = compound alone 0.5 mM in 0.1 M HClO4, 3rd Eox column
# [15] = compound alone 0.5 mM in 0.1 M HClO4, 3rd Iox column
# [16] = compound 0.5 mM + Fe^3+/Fe^2+ (0.5 mM potassium ferricyanide), 1st Eox column
# [17] = compound 0.5 mM + Fe^3+/Fe^2+ (0.5 mM potassium ferricyanide), 1st Iox column
# [18] = compound + Fe^3+/Fe^2+, 5th Eox
# [19] = compound + Fe^3+/Fe^2+, 5th Iox column
# [20] = compound alone 0.5 mM in 0.1 M HClO4, 2nd Eox
# [21] = compound alone 0.5 mM in 0.1 M HClO4, 5th Eox
# [22] = compound alone 0.5 mM in 0.1 M HClO4, 5th Iox column
smiles,measurement,setting,value
"Br.C/C(=N\Nc1nc(-c2ccccc2)cs1)c1ccc(O)cc1O [Compound 6a, (E)-2-(1-(2,4-dihydroxyphenyl)ethylidene)-1-(4-phenylthiazol-2-yl)hydrazin-1-ium bromide]",Iox (μA),"[1]; compound + DPPH, 30 min",18.21 μA
same,Eox (V),[1]; [5],0.379 V
same,Eox (V),[1]; [6],0.232 V
same,Iox (μA),[1]; [7],4.99 μA
same,Ered (V),[1]; [8],0.193 V
same,Ired (μA),"[1]; compound alone, 2nd Ired",−4.16 μA
same,Eox (V),"[1]; compound alone, 3rd Eox column",0.565 V
same,Iox (μA),"[1]; compound alone, 3rd Iox column",4.37 μA
same,% of ABTS˙^+ Scavenged,[2]; 0.5 µg/mL,4.75%
same,% of ABTS˙^+ Scavenged,[2]; 0.75 µg/mL,7.92%
same,% of ABTS˙^+ Scavenged,[2]; 1 µg/mL,12.68%
same,% of ABTS˙^+ Scavenged,[2]; 1.5 µg/mL,22.21%
same,% of ABTS˙^+ Scavenged,[2]; 2.5 µg/mL,36.01%
same,IC50,[2],3.34 µg/mL
same,"Chelation Capacity (%), ferrous ions",Fe^2+ chelation assay; 50 µg/mL,0.07%
same,"Chelation Capacity (%), ferrous ions",Fe^2+ chelation assay; 100 µg/mL,7.14%
same,"Chelation Capacity (%), ferrous ions",Fe^2+ chelation assay; 150 µg/mL,14.50%
same,"Chelation Capacity (%), ferrous ions",Fe^2+ chelation assay; 200 µg/mL,25.03%
same,Ered (V),[3]; [9],0.142 V
same,Ired (μA),[3]; [10],−5.88 μA
same,Eox (V),[3]; [11],0.223 V
same,Iox (μA),[3]; [12],2.74 μA
same,Eox (V),"[3]; compound + Fe^3+/Fe^2+, 3rd Eox column",0.424 V
same,Iox (μA),"[3]; compound + Fe^3+/Fe^2+, 3rd Iox column",3.82 μA
same,Iox (μA),[3]; [13],3.04 μA
same,Eox (V),[3]; [14],0.586 V
same,Iox (μA),[3]; [15],6.79 μA
same,oxidation signal for TEMPO after incubation with the compound,[4],does not decrease
same,MIC,E. coli ATCC 8739,> 100 µg/mL
"Br.Oc1ccc(/C=N/Nc2nc(-c3ccccc3)cs2)c(O)c1 [Compound 6b, (E)-2-(2,4-dihydroxybenzylidene)-1-(4-phenylthiazol-2-yl)hydrazin-1-ium bromide]",Iox (μA),"[1]; compound + DPPH, 30 min",43.4 μA
same,Ered (V),"[1]; compound + DPPH, 30 min, 1st Ered",0.302 V
same,Ired (μA),"[1]; compound + DPPH, 30 min, 1st Ired",−1.09 μA
same,Eox (V),[1]; [5],0.391 V
same,Ered (V),"[1]; compound + DPPH, 30 min, 2nd Ered column",0.425 V
same,Ired (μA),"[1]; compound + DPPH, 30 min, 2nd Ired",−1.23 μA
same,Iox (μA),[1]; compound alone,47.3 μA
same,Eox (V),"[1]; compound alone, 2nd Eox",0.391 V
same,Ered (V),[1]; [8],0.239 V
same,Ired (μA),"[1]; compound alone, 2nd Ired",−7.045 μA
same,% of ABTS˙^+ Scavenged,[2]; 0.5 µg/mL,11.67%
same,% of ABTS˙^+ Scavenged,[2]; 0.75 µg/mL,17.45%
same,% of ABTS˙^+ Scavenged,[2]; 1 µg/mL,19.83%
same,% of ABTS˙^+ Scavenged,[2]; 1.5 µg/mL,28.56%
same,% of ABTS˙^+ Scavenged,[2]; 2.5 µg/mL,42.53%
same,IC50,[2],2.97 µg/mL
same,"Chelation Capacity (%), ferrous ions",Fe^2+ chelation assay; 50 µg/mL,0.07%
same,"Chelation Capacity (%), ferrous ions",Fe^2+ chelation assay; 100 µg/mL,4.84%
same,"Chelation Capacity (%), ferrous ions",Fe^2+ chelation assay; 150 µg/mL,13.39%
same,"Chelation Capacity (%), ferrous ions",Fe^2+ chelation assay; 200 µg/mL,22.27%
same,Eox (V),[3]; [16],0.203 V
same,Iox (μA),[3]; [17],2.48 μA
same,Ered (V),[3]; [9],0.149 V
same,Ired (μA),[3]; [10],−8.26 μA
same,Eox (V),[3]; [11],0.325 V
same,Iox (μA),[3]; [12],44.78 μA
same,Eox (V),[3]; [18],0.879 V
same,Iox (μA),[3]; [19],21.84 μA
same,Eox (V),[3]; [20],0.386 V
same,Iox (μA),[3]; [13],37.55 μA
same,Eox (V),[3]; [21],0.894 V
same,Iox (μA),[3]; [22],8.86 μA
same,oxidation signal for TEMPO after incubation with the compound,[4],does not decrease
same,MIC,E. coli ATCC 8739,> 100 µg/mL
"C/C(=N\Nc1nc(-c2ccc(O)c(O)c2)cs1)c1ccc(O)cc1O.Cl [Compound 8a, (E)-2-(1-(2,4-dihydroxyphenyl)ethylidene)-1-(4-(3,4-dihydroxyphenyl)thiazol-2-yl)hydrazin-1-ium chloride]",Iox (μA),"[1]; compound + DPPH, 30 min",11.18 μA
same,Eox (V),[1]; [5],0.311 V
same,Eox (V),"[1]; compound + DPPH, 30 min, 3rd Eox column",0.455 V
same,Iox (μA),"[1]; compound + DPPH, 30 min, 3rd Iox column",20.68 μA
same,Eox (V),"[1]; compound + DPPH, 30 min, 4th Eox column",0.908 V
same,Iox (μA),"[1]; compound + DPPH, 30 min, 4th Iox column",6.39 μA
same,Eox (V),"[1]; compound + DPPH, after 30 min of reaction, 1st Eox column",0.188 V
same,Iox (μA),"[1]; compound + DPPH, after 30 min of reaction, 1st Iox column",11.53 μA
same,Iox (μA),[1]; compound alone,6.97 μA
same,Eox (V),[1]; [6],0.193 V
same,Iox (μA),[1]; [7],3.56 μA
same,Eox (V),"[1]; compound alone, 2nd Eox",0.325 V
same,Ered (V),[1]; [8],0.278 V
same,Ired (μA),"[1]; compound alone, 2nd Ired",−18.04 μA
same,Eox (V),"[1]; compound alone, 3rd Eox column",0.459 V
same,Iox (μA),"[1]; compound alone, 3rd Iox column",22.39 μA
same,Eox (V),"[1]; compound alone, 4th Eox column",0.935 V
same,Iox (μA),"[1]; compound alone, 4th Iox column",6.88 μA
same,% of ABTS˙^+ Scavenged,[2]; 0.5 µg/mL,25.40%
same,% of ABTS˙^+ Scavenged,[2]; 0.75 µg/mL,33.32%
same,% of ABTS˙^+ Scavenged,[2]; 1 µg/mL,41.07%
same,% of ABTS˙^+ Scavenged,[2]; 1.5 µg/mL,58.72%
same,% of ABTS˙^+ Scavenged,[2]; 2.5 µg/mL,90.97%
same,IC50,[2],1.25 µg/mL
same,"Chelation Capacity (%), ferrous ions",Fe^2+ chelation assay; 50 µg/mL,7.73%
same,"Chelation Capacity (%), ferrous ions",Fe^2+ chelation assay; 100 µg/mL,12.28%
same,"Chelation Capacity (%), ferrous ions",Fe^2+ chelation assay; 150 µg/mL,17.60%
same,"Chelation Capacity (%), ferrous ions",Fe^2+ chelation assay; 200 µg/mL,22.64%
same,scavenging effect on ferric ion,[3]; 0.5 mM ferricyanide + 0.5 mM compound,highest scavenging effect
same,Eox (V),[3]; [16],0.072 V
same,Iox (μA),[3]; [17],0.17 μA
same,Ered (V),[3]; [9],0.054 V
same,Ired (μA),[3]; [10],−8.37 μA
same,Eox (V),[3]; [11],0.186 V
same,Iox (μA),[3]; [12],17.73 μA
same,Eox (V),"[3]; compound + Fe^3+/Fe^2+, 4th Eox column",0.452 V
same,Iox (μA),"[3]; compound + Fe^3+/Fe^2+, 4th Iox column",12.93 μA
same,Eox (V),[3]; [18],0.87 V
same,Iox (μA),[3]; [19],18.64 μA
same,Eox (V),[3]; [20],0.195 V
same,Ered (V),"[3]; compound alone 0.5 mM in 0.1 M HClO4, 2nd Ered column",0.296 V
same,Iox (μA),[3]; [13],2.32 μA
same,Ired (μA),"[3]; compound alone 0.5 mM in 0.1 M HClO4, 2nd Ired",−5.09 μA
same,Eox (V),[3]; [14],0.330 V
same,Iox (μA),[3]; [15],7.42 μA
same,Eox (V),"[3]; compound alone 0.5 mM in 0.1 M HClO4, 4th Eox column",0.460 V
same,Iox (μA),"[3]; compound alone 0.5 mM in 0.1 M HClO4, 4th Iox column",7.70 μA
same,Eox (V),[3]; [21],0.985 V
same,Iox (μA),[3]; [22],3.45 μA
same,oxidation signal for TEMPO after incubation with the compound,[4],both the signal shift to higher oxidation potentials and its decrease
same,MIC,"E. coli ATCC 8739; E. coli ATCC 8739, read-out: MIC",> 100 µg/mL
